This passage reports Ki results from ChEMBL document CHEMBL4184084, “Discovery of Mcl-1 inhibitors based on a thiazolidine-2,4-dione scaffold” (Bioorg Med Chem Lett, 2018).

pKi: −log10 of the molar value.

Assay [1] has as its target Induced myeloid leukemia cell differentiation protein Mcl-1 (Homo sapiens, UniProt Q07820). The assay is described as follows: Inhibition of FITC-labeled Bak-BH3 peptide binding to MCL1 (172 to 371 residues) (unknown origin) by fluorescence polarization competition assay. (In general: In fluorescence polarisation assays a small probe gives low polarisation when free and higher when bound to something large.)

Assay [2] has as its target Bcl-2-like protein 1 (Homo sapiens, UniProt Q07817). The assay is described as follows: Inhibition of FITC-labeled Bak-BH3 peptide binding to Bcl-XL (2 to 212 residues) (unknown origin) by fluorescence polarization assay.

Chain of Induced myeloid leukemia cell differentiation protein Mcl-1 (Q07820 whole entry, the tested form may be a part): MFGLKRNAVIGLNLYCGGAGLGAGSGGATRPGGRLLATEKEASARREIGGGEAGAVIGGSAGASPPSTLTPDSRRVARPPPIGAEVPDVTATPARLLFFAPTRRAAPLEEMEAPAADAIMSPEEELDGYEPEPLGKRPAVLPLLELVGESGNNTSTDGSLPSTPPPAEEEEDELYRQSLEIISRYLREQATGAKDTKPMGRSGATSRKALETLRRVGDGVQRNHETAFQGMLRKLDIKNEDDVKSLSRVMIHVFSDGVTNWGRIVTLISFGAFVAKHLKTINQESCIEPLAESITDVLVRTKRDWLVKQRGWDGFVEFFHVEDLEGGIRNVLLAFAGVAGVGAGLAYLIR
Chain of Bcl-2-like protein 1 (Q07817 whole entry, the tested form may be a part): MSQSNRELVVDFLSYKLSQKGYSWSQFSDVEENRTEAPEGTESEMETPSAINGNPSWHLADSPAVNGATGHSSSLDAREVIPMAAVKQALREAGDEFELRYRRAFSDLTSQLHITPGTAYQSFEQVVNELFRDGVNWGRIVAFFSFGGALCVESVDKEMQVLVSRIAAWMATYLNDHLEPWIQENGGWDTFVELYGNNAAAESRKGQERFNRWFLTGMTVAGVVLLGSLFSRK

`CC(C)C[C@@H](C(=O)O)N1C(=O)S/C(=C\c2ccccc2)C1=O`: the pKi – broadly, −log10 of the Ki, conventionally taken in molar units – in assay [1] is < 4.00.

In assay [1], `CC(C)C[C@@H](C(=O)O)N1C(=O)S/C(=C\c2ccc(Br)cc2)C1=O` had a pKi of 5.06. Regarding `Cc1cc(Oc2ccc(/C=C3\SC(=O)N([C@H](C)C(=O)O)C3=O)cc2)cc(C)c1Cl`, the pKi in assay [1] is 5.56. This pKi lies 0.50 log units higher than the previous one.

Regarding `CC(C)(C)c1ccc(/C=C2\SC(=O)N([C@@H](Cc3ccccc3)C(=O)O)C2=O)cc1`, in assay [1], the pKi is 6.07. The compound `O=C(O)[C@H](Cc1ccccc1)N1C(=O)S/C(=C\c2cccc(Br)c2)C1=O` gave a pKi in assay [1] of 6.54. On the same count and under the same terms, for `COC(=O)[C@H](CC(C)C)N1C(=O)S/C(=C\c2ccc(Oc3cc(C)c(Cl)c(C)c3)cc2)C1=O` the value was < 4.00; for `Cc1cc(Oc2ccc(/C=C3\SC(=O)N(CC(=O)O)C3=O)cc2)cc(C)c1Cl`, 5.63; for `Cc1cc(Oc2ccc(/C=C3\SC(=O)N([C@@H](CC(C)C)C(N)=O)C3=O)cc2)cc(C)c1Cl`, < 4.00. `Cc1cc(Oc2ccc(/C=C3\SC(=O)N([C@@H](CC(C)C)C(=O)O)C3=O)cc2Br)cc(C)c1Cl` had a pKi in assay [1] of 6.10. `Cc1cc(Oc2ccc(/C=C3\SC(=O)N([C@@H](CC(C)C)C(=O)O)C3=O)cc2)cc(C)c1Cl` had a pKi in assay [1] of 6.38. Regarding `Cc1cc(Oc2ccc(/C=C3\SC(=O)NC3=O)cc2)cc(C)c1Cl`, the negative-log Ki (pKi) in assay [1] is < 4.00. Turning to `CC(C)C[C@@H](C(=O)O)N1C(=O)S/C(=C\c2ccc(C(C)(C)C)cc2)C1=O`, the negative logarithm of the Ki (pKi) in assay [1] was 5.65. `CC(C)C[C@@H](C(=O)O)N1C(=O)S/C(=C\c2cccc(Br)c2)C1=O`: the pKi in assay [1] is 5.67. `Cc1cc(Oc2ccc(/C=C3\SC(=O)N([C@H](C(=O)O)C(C)C)C3=O)cc2)cc(C)c1Cl`: the pKi in assay [1] is 5.92. In the case of `CC(C)C[C@@H](C(=O)O)N1C(=O)S/C(=C\c2ccc(Oc3ccccc3)cc2)C1=O`, the pKi in assay [1] is 4.90. This pKi lies 1.02 log units lower than the previous one. In turn, `Cc1cc(Oc2ccc(/C=C3\SC(=O)N([C@@H](C)C(=O)O)C3=O)cc2)cc(C)c1Cl` showed a pKi in assay [1] of 5.71. `Cc1cc(Oc2ccc(/C=C3\SC(=O)N([C@@H](Cc4ccccc4)C(=O)O)C3=O)cc2)cc(C)c1Cl`: the pKi in assay [2] was 7.05; in assay [1], 6.81.

Regarding `CC(C)C[C@@H](C(=O)O)N1C(=O)S/C(=C\c2ccc(O)cc2)C1=O`, the pKi in assay [1] is < 4.00. For the compound `Cc1cc(Oc2ccc(CC3SC(=O)N(CC(=O)O)C3=O)cc2)cc(C)c1Cl` (configuration not stated), the pKi in assay [1] was 4.99.

With `Cc1cc(Oc2ccc(/C=C3\SC(=O)N([C@H](CC(C)C)C(=O)O)C3=O)cc2)cc(C)c1Cl`, in assay [1], the pKi was 6.00. Compared with the last compound, the pKi is 1.01 log units higher. On to `Cc1cc(Oc2ccc(/C=C3\SC(=O)N([C@H](Cc4ccccc4)C(=O)O)C3=O)cc2)cc(C)c1Cl`, for which the negative-log Ki (pKi) in assay [1] was 6.06.
